# Assays:
# SCP28 cells = assay: Parental SCP28 bone metastasis, late treatment with 15D11 and paclitaxel; assay type: in vivo, mice; details: low endogenous Jagged1
# From the text: FIG. 4. Synergistic inhibition of bone metastasis by SCP28 with combined treatment of 15D11 and chemotherapy. (A) Schematic illustration of the experimental procedure. (B) Quantification of bone metastasis burden based on BLI imaging. n=10. *p<0.05 and **p<0.01 by Mann-Whitney test. (C) Representative BLI images and X-ray images at week 6. (D) Representative H&E and TRAP staining images from the experiment. (E) Quantification of osteolytic lesions based on X-ray images. n=10. **p<0.01 by Student's t-test. (F) Quantification of TRAP+ osteoclasts from decalcified histological bone sections of hind limbs from mice, n=10. **p<0.01 by Student's t-test. Size bar: 100 μm for H&E and 50 μm for TRAP.
# The strong inhibitory effect of the combined treatment on bone metastasis could potentially be explained by the combined effect of blocking Jagged1-dependent stromal engagement by 15D11 and cytotoxicity of paclitaxel to tumor cells. […]
# Mice were purchased from Jackson laboratory. […] Spontaneous bone metastasis was monitored by X-ray imaging. […] Bone metastasis burden was monitored by weekly BLI and X-ray imaging. At the experimental endpoint, mice were euthanized for bone histology analysis and half of the bone samples were used for μCT imaging and bone density quantification.
# SCP28 = assay: CC3 immunofluorescent staining of GFP-positive tumor cells in mouse bone sections; assay type: in vivo, mice; details: after two rounds of treatment
# Method: FIG. 7. Pro-survival effect of osteoblast Jagged1 on cancer cells can be blocked by 15D11. (A) 3-D tumorsphere culture of MCF7, SCP28, and SUM1315-M1B1 cells, alone or in co-cultured with osteoblast cells, were treated with indicated concentrations of cisplatin or docetaxel. Two days after the chemotherapy, the surviving tumor spheres were counted under the fluorescent microscope. n=3. *p<0.05 by Student's t-test. (B) Cell culture of SCP28 cells alone or in co-culture with MC3T3-E1 pre-osteoblast cells were treated with PBS control or cisplatin. Protein samples were collected at 6 hr, 24 hr, and 72 hr later. Cleaved PARP and cleaved caspase-3 were determined by immunoblotting. # marks full length PARP and * marks cleaved PARP. […] Hind limb bones were fixed and cryo-sectioned for IF staining against CC3 for apoptotic cells and GFP for tumor cells (E), and CC3 positive apoptotic cells among GFP-positive tumor cells were quantified in F. Size bar: 25 μm. n=5. **p<0.01 by Student's t-test. […] Tumor cells in the bone were quantified based on BLI imaging at Day 1 and Day 4. […]
# Hindlimb bones were excised from mice at the end point of each experiment, immediately after the last BLI time point. […] For quantitative analysis of lesion area, a 10× objective was used to focus on the tumor region of interest and images were acquired using the AxioCamICc3 camera set to an exposure of around 100 ms. […]
smiles,measurement,setting,value
CC(=O)O[C@H]1C(=O)[C@@]2(C)[C@H]([C@H](OC(=O)c3ccccc3)[C@]3(O)C[C@H](OC(=O)[C@H](O)[C@@H](NC(=O)c4ccccc4)c4ccccc4)C(C)=C1C3(C)C)[C@]1(OC(C)=O)CO[C@@H]1C[C@@H]2O [paclitaxel],bone metastasis burden,SCP28 cells,only slightly reduced metastatic burden
same,CC3 positive tumor cells,SCP28,substantial numbers of tumor cells

# Source: patent US20200237909A1, “METHODS OF TREATING OR PREVENTING BREAST CANCER METASTASES USING ANTIBODIES TO JAGGED1 AND CHEMOTHERAPEUTIC AGENTS” (The Trustees of Princeton University, priority 2017, published 2020)
